Literature values, collected in patent US12213953B2, “Extended release midodrine hydrochloride compositions and methods of use” (XENAMED CORP., priority 2017, dated 2025).
Counter-ions that a name gives are not always drawn.

What was measured:
[1] = high water solubility and high permeability
[2] = oral 10 mg immediate release tablet

## COc1ccc(OC)c(C(O)CNC(=O)CN)c1 (racemic) [midodrine HCl, (±)-2-amino-N-[2-(2,5-dimethoxyphenyl)-2-hydroxyethyl]acetamide monohydrochloride]
[1]
  BCS classification: BCS Class I

## COc1ccc(OC)c(C(O)CN)c1 (centres unmarked) [desglymidodrine]
In vivo
  effect of food on bioavailability of desglymidodrine: not affected by food
[2]
  first peak blood concentration of desglymidodrine: about 10 ng/mL

## COc1ccc(OC)c(C(O)CNC(=O)CN)c1 (centres unmarked) [midodrine]
[2]
  half-life of midodrine: approximately 25 minutes
  time to peak plasma levels of midodrine: about 30 minutes
